Test results: publication PMC6267221, “Renal Cell Carcinoma Is Abrogated by p53 Stabilization through Transglutaminase 2 Inhibition” (Cancers, 2018)

T1: transglutaminase 2 (TGase 2) (Homo sapiens, UniProt P21980)
T1 construct: gene TGM2; recombinant human TGase 2, polyhistidine-tagged
T1 sequence (P21980 2-687): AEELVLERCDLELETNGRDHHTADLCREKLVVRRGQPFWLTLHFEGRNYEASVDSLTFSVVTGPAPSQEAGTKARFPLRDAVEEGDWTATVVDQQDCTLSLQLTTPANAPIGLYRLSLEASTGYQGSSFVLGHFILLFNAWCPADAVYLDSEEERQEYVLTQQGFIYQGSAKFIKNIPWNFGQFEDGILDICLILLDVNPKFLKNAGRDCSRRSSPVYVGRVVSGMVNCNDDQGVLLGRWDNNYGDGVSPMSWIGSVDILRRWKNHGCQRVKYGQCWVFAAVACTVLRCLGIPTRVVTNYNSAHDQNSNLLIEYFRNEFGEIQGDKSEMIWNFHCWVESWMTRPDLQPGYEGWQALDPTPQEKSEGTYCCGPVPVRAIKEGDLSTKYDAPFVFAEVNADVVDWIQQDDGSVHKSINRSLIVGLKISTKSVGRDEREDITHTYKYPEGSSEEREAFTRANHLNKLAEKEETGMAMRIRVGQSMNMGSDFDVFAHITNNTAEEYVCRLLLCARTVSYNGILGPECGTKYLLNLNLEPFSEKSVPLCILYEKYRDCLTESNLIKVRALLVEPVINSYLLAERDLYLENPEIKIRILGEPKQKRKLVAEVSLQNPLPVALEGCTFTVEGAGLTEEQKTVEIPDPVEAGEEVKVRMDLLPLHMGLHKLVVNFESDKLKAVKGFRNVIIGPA

T2: guinea pig liver TGase 2 (UniProt P08587)
T2 construct: gene TGM2
T2 sequence (P08587 2-690): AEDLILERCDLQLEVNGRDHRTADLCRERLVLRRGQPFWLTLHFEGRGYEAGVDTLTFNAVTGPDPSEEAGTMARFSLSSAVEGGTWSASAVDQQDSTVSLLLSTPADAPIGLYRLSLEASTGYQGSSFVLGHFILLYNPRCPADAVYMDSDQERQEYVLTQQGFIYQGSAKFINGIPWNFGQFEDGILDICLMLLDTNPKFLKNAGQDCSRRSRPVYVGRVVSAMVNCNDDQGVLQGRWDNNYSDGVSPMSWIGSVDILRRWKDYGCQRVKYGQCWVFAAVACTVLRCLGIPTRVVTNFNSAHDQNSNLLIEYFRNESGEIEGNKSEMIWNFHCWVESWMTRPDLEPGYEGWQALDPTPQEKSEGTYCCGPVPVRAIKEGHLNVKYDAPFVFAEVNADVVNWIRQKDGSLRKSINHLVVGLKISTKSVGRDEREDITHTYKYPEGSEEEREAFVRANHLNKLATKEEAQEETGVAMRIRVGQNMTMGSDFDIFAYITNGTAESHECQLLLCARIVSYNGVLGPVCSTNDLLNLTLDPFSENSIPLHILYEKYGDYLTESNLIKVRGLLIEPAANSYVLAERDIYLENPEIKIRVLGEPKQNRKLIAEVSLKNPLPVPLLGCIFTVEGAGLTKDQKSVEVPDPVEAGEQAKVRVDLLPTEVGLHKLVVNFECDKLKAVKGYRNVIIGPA

T3: TGase 2 (as run on native gels), P21980
T3 chain: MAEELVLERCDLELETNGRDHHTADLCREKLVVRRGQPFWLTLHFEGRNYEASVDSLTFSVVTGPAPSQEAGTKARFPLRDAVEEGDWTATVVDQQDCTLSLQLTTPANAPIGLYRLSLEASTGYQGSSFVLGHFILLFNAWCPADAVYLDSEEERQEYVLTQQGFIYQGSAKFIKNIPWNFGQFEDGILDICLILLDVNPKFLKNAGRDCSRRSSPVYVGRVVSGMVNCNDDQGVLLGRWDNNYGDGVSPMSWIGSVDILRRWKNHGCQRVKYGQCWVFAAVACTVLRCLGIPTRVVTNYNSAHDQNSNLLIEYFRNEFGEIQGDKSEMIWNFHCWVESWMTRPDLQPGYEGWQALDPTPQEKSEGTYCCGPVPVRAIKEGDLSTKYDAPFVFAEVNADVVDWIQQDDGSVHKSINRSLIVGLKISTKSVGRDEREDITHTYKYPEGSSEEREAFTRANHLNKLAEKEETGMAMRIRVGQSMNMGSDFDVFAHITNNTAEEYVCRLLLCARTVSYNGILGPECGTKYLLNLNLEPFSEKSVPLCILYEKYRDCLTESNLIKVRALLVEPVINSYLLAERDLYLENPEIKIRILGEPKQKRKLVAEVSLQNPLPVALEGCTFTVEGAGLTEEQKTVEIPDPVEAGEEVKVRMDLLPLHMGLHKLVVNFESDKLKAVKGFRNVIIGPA

B1: TGase 2 (as run on native gels), P21980 1-687 (enzyme)
chain: T3 chain

How the values were obtained:
[1] = target: T1, transglutaminase 2 (TGase 2); assay: SPR (ProteOn XPR36); MS peptide masking supports the site; format: binding
guinea pig liver TGase 2 = target: T2, guinea pig liver TGase 2; assay: succinylated casein / […]-putrescine incorporation assay; format: biochemical, Cavia cutleri
[2] = target: T3, TGase 2 (as run on native gels), P21980; assay: native gel or EMSA; TGase 2 incubated with streptonigrin or GTP, 37 °C; native gel, immunoblot of TGase 2; monomer to dimer; details: remark: other sources report otherwise

| Molecule | Kd [1] [nM] | IC50 (guinea pig liver TGase 2) [nM] | fold increase in the density of the dimer band after streptonigrin treatment [2] [fold] | stoichiometry N [2] |
| --- | --- | --- | --- | --- |
| COC1=C(N)C(=O)c2nc(-c3nc(C(=O)O)c(C)c(-c4ccc(OC)c(OC)c4O)c3N)ccc2C1=O [streptonigrin] | ~700 | 1700 | – | – |
| B1 | – | – | 2.4 | 2 |
